The text below walks through data of patent US6376535B2, “Oxygen-containing heterocyclic compounds” (Kyowa Hakko Kogyo Co., Ltd., priority 1998, dated 2002).

T1 sequence (P27815 224-886 limits assumed): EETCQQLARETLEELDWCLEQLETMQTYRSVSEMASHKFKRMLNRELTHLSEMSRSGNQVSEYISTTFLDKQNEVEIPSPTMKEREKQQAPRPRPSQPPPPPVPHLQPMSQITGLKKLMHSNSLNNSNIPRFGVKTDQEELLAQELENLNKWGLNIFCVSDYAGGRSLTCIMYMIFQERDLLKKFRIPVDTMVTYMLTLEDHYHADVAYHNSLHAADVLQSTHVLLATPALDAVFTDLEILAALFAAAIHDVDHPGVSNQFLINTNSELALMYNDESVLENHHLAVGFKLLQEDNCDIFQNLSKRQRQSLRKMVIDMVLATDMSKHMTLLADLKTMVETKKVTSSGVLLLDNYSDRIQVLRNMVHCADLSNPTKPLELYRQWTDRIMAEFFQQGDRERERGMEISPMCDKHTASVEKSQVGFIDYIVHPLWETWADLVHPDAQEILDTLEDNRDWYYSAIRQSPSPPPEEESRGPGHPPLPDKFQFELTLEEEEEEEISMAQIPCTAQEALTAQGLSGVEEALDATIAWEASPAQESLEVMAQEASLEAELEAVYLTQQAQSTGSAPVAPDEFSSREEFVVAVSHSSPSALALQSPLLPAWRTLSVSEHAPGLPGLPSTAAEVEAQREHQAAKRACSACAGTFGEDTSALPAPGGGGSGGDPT

System in the first data set: not given
Test: not given
Details: not given
In general, melting point refers to the temperature, or range, at which the solid turns liquid. In turn, `COc1ccc(C2(C#N)CCC(=CC(=O)O)CC2)c2c1OCCO2` (stereo not drawn) [Compound 11, 4-Cyano-4-(8-methoxy-1,4-benzodioxan-5-yl)cyclohexanylideneacetic acid] returned a melting point of 203 to 204 °C.
On the same count and under the same terms, the value for `CCOC(=O)C=C1CCC(C#N)(c2ccc(OC)c3c2OCCO3)CC1` (stereo not drawn) [Compound 10, Ethyl 4-cyano-4-(8-methoxy-1,4-benzodioxan-5-yl)cyclohexanylideneacetate] was 110 to 112 °C; that for `COc1ccc(-c2ccc3c(c2)C(=O)NC3=O)c2c1OCCO2` [Compound 23, 4-(8-Methoxy-1,4-benzodioxan-5-yl)phthalimide] was 285 to 287 °C.
Still for that read-out and setting: the value for `COc1ccc(-c2cccc3c2COC3=O)c2c1OCCO2` [Compound 22, 4-(8-Methoxy-1,4-benzodioxan-5-yl)-1(3H)-isobenzofuranone] was 158 to 160 °C; that for `COC=C1CCC(C#N)(c2ccc(OC)c3c2OCCO3)CC1` (stereo not drawn) [Compound 6, 1-(8-Methoxy-1,4-benzodioxan-5-yl)-4-methoxymethylenecyclohexane carbonitrile] was 112 to 113 °C.

The next data set has as its target T1, Recombinant Human PDE IV Enzyme (HSPDE4A) (Homo sapiens, UniProt P27815).
T1 construct: made in house; host or cells: E. coli
Briefly: Inhibition Test on Recombinant Human PDE IV Enzyme. Format: biochemical. Conditions: substrate [3H]cAMP 1 μmol/L. On the procedure: Inhibition Test on Recombinant Human PDE IV Enzyme
Human phosphodiesterase cDNA (HSPDE4A) was isolated from testicles. Its predicted amino acid sequence is identical with the sequence (HSPDE4A5) reported by Bolger, G. et al. (Mol. Cell. Biol., 6558 (1993)) except that 223 amino acids have been deleted from the N-terminal thereof. This recombinant protein was expressed by an E. coli expression plasmid and then purified. The PDE activity was measured in the following 2-step process according to the method of Kincaid, R. and Manganiello, V. [Method. Enzymol., 159, 457 (1988)]. The substrate used was [^3H]cAMP (final concentration: 1 μmol/L), and the reaction was performed in a standard mixture containing N,N-bis(2-hydroxyethyl)-2-aminoethanesulfonic acid (50 mmol/L, pH 7.2), MgCl2 (1 mmol/L) and soybean trypsin inhibitor (0.1 mg/ml). The reaction was initiated by adding the enzyme thereto, and the mixture was incubated at 30° C. for 10 to 30 minutes. The reaction was quenched by hydrochloric acid, and the formed 5′-AMP was completely decomposed with […]. This sample was subjected to chromatography on DEAE-Sephadex A-25, and the eluted [^3H]adenosine was counted […] with a scintillation counter. The test compound was added after dissolved (concentration: 1.7%) in DMSO.
Regarding `COc1ccc(C2(C#N)CCC(C(=O)O)CC2)c2c1OCCO2` (stereo not drawn) [Compound 5, cis-4-Cyano-4-(8-methoxy-1,4-benzodioxan-5-yl)cyclohexanecarboxylic acid], the enzyme inhibitory activity entry was “over 87%”.
